In article PMC4350406, “Mechanism of Action of 2-Aminobenzamide HDAC Inhibitors in Reversing Gene Silencing in Friedreich’s Ataxia” (Frontiers in Neurology, 2015):
“Also recorded” adds a separate entry of the source. Read-outs that look alike come from different tables or passages of the source.

How the values were obtained:
HDAC = system: HDAC; parameters: method as in PMID 16921367, PMID 18953021; details: cited from earlier work
FXN mRNA [1] = details: cited from earlier work; for effect on FXN gene expression: lymphoid cells
[2] = parameters: method as in PMID 27721337, PMID 22973455; details: in vivo, cited from earlier work
[3] = biological target: T1, Recombinant human HDAC3/NCoR2 (Homo sapiens, UniProt O15379); details: cited from earlier work
T1 sequence (O15379 whole entry): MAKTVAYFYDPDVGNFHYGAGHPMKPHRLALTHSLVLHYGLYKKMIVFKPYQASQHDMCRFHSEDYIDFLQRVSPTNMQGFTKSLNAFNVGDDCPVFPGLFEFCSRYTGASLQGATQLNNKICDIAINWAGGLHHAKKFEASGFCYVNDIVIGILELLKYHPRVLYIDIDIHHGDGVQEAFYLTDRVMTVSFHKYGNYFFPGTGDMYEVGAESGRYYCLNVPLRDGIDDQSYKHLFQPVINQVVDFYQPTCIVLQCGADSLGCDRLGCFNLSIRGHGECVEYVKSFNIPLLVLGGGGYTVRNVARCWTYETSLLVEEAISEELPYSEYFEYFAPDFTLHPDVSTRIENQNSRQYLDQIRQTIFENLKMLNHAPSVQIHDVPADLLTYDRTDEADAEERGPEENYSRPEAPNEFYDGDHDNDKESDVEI
T1 sequence (Q9Y618 395-489 partner limits assumed): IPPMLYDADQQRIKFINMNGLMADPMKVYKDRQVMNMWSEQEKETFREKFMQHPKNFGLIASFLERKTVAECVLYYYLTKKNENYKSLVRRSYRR

FXN mRNA [4] = system: FXN mRNA; parameters: method as in PMID 25159818; details: cited from earlier work
FXN mRNA [5] = assay: qRT-PCR of FXN mRNA in FRDA iPSC-derived neurons treated with HDAC inhibitors; type: cell-based, human; details: for up-regulation of FXN mRNA: 10 μM for 24 h, data not shown; for effect on FXN mRNA levels: 16-day-old FRDA neurons, 24 h, varying concentrations (Figure 2)
Method: (§1) All methods for iPSC derivation ([32]) and neuronal differentiation ([28], [33]) have been presented. […] Quantitative RT-PCR was performed as described ([28]), with the following primer pairs: • FXN: 5′-[…]-3′ and 5′-[…]-3′ • HDAC1: 5′-[…]-3′ and 5′-[…]-3′ • HDAC2: 5′-[…]-3′ and 5′-[…]-3′ • HDAC3: 5′-[…]-3′ and 5′-[…]-3′ • PCGF2: 5′-[…]-3′ and 5′-[…]-3′ • H2AFY2: 5′-[…]-3′ and 5′-[…]-3′
(§2) Data were normalized to RNA concentration and p values calculated using the t-test. Western blotting was performed as described ([28]), with antibodies to HDACs 1, 2, and 3 from Abcam (ab7028, ab7029, ab7030, respectively), used at a dilution of 1:5000. […] Protein concentrations were determined with the BCA assay (Thermo Scientific).

FXN mRNA [6] = system: FXN mRNA; parameters: method as in PMID 12516053; details: cited from earlier work
FXN mRNA [7] = system: FXN mRNA; parameters: method as in PMID 16921367; details: FRDA primary lymphocytes; cited from earlier work
PCGF2 mRNA = assay: qRT-PCR of PCGF2 mRNA in FRDA neuronal cells; type: cell-based, human; details: 24 h
Method: as §1, §2

H2AFY2 mRNA = assay: qRT-PCR of H2AFY2 mRNA in FRDA neuronal cells; type: cell-based, human; details: 24 h
Method: as §1, §2

Recombinant human HDAC1 [8] = biological target: T2, Recombinant human HDAC1 (Homo sapiens, UniProt Q13547); details: cited from earlier work
T2 sequence (Q13547 whole entry): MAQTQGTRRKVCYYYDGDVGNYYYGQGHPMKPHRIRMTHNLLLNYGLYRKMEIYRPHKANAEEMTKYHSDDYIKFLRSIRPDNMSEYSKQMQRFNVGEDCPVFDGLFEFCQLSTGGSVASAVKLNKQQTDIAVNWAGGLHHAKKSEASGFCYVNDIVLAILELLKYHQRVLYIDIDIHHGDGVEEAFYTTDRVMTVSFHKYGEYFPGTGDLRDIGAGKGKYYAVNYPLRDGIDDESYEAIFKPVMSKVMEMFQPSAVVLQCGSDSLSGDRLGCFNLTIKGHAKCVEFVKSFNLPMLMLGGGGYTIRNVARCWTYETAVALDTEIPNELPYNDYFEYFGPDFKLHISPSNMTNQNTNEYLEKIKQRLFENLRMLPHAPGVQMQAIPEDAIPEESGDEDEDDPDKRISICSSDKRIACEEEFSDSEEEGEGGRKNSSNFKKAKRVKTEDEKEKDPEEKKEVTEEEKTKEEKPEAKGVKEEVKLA

[9] = biological target: T1, Recombinant human HDAC3/NCoR2; assay: HDAC3/NCoR2 deacetylase activity assay (acetyl-Lys(Ac)-AMC / Lys-C peptidase, progression curves)
Recombinant human HDAC1 [10] = biological target: T2, Recombinant human HDAC1; assay: HDAC1 deacetylase activity assay (acetyl-Lys(Ac)-AMC / Lys-C peptidase, progression curves)
[11] = parameters: method as in PMID 25159818; details: preclinical studies; cited from earlier work
[12] = cited from earlier work
[13] = fit of kobs versus inhibitor concentration
[14] = progression curves, mechanism 1
[15] = progression curves, mechanism 2

With `CC(/C=C/C(=O)NO)=C\[C@@H](C)C(=O)c1ccc(N(C)C)cc1` [TSA] as the molecule, how does the inhibition mechanism (HDAC) read?
Its inhibition mechanism is “rapid-on/rapid-off inhibitors”.

And the “effect on FXN gene expression” value (FXN mRNA [1])?
The value was “without effect on FXN gene expression”.

With `NC(=O)c1cccnc1` [nicotinamide] as the molecule, how does the “FXN mRNA levels” value (FXN mRNA [1]; FRDA lymphoblasts) read?
Its value is “increases FXN mRNA levels”.

Which results are given for `Cc1ccc(C(=O)NCCCCCC(=O)Nc2ccccc2N)cc1` [HDACi 109, N-(6-(2-aminophenylamino)-6-oxohexyl)-4-methylbenzamide]?
metabolic conversion / benzimidazole formation [2]: conversion of the active molecule into an inactive metabolic product; metabolic conversion / benzimidazole formation ([2]; listed as 109/RG2833): conversion of the active molecule into inactive, potentially toxic metabolic products

For `Nc1ccccc1NC(=O)CCCCCCC(=O)Nc1ccccc1` [BML-210, N^1-(2-aminophenyl)-N^8-phenyloctanediamide], which “FXN mRNA expression” value (FXN mRNA [1]; FRDA lymphoblasts) is on record?
Its value is “significant increase”.

With `Nc1cc(F)ccc1NC(=O)/C=C/c1cnn(CC=Cc2ccccc2)c1` [HDACi 966, (E)-N-(2-amino-4-fluorophenyl)-3-(1-cinnamyl-1H-pyrazol-4-yl)acrylamide] as the molecule, how does the “selectivity for HDAC3 over HDAC1/2” value [3] read?
The value was ~ 30 fold.

What about the “induction of FXN gene expression in FRDA neuronal cells” value (FXN mRNA [4]) of the same molecule?
Its value is “inactive”.

And the “up-regulation of FXN mRNA” value (FXN mRNA [5]; FRDA neuronal cells)?
The value was “did not”.

Which “ability to increase FXN mRNA expression” value (FXN mRNA [6]) does the source give for `CCCC(=O)[O-].[Na+]` [sodium butyrate] here?
The value was “only a modest effect”.

For `Nc1ccccc1NC(=O)CCCCCC(=O)Nc1ccccc1` [4b, N^1-(2-aminophenyl)-N^7-phenylheptanediamide], which “FXN mRNA levels” value (FXN mRNA [7]) is on record?
Its value is “significantly increase FXN mRNA levels”.

With `Cc1ccc(C(=O)NCCCCCC(=O)Nc2ccc(F)cc2N)cc1` [HDACi 136, N-(6-(2-amino-4-fluorophenylamino)-6-oxohexyl)-4-methylbenzamide] as the molecule, how does the “PCGF2 mRNA level” value (PCGF2 mRNA; 5 μM (lower concentrations)) read?
The value was “inactive at lower concentrations”.

And the “PCGF2 mRNA level” value (PCGF2 mRNA; 10 μM)?
The value was “moderately active”.

What about the “H2AFY2 mRNA level” value (H2AFY2 mRNA; 5 μM (lower concentrations)) of the same molecule?
Its value is “inactive at lower concentrations”.

And the “H2AFY2 mRNA level” value (H2AFY2 mRNA; 10 μM)?
The value was “moderately active”.

And the “effect on FXN mRNA levels” value (FXN mRNA [5])?
The value was “only a modest effect; also recorded: inactive”.

Which results are given for `Nc1ccc(-c2ccccc2)cc1NC(=O)CCCCCC(=O)Nc1ccccc1` [HDACi 3, N^1-(4-aminobiphenyl-3-yl)-N^7-phenylheptanediamide]?
IC50 (Recombinant human HDAC1 [8]): 0.127 µM; IC50 [3]: 9.6 µM; inhibition mechanism HDAC3 [9, 13]: mechanism 1; k1 HDAC3 [9, 14]: k1 = 600 min^-1 M^−1; k−1 HDAC3 [9, 14]: k−1 = 0.0015 min^−1; Selectivity HDAC3 (from IC50) ([9]; ratio of IC50 HDAC1 to IC50 HDAC3, from data of refs 25, 26): 0.013; effect on FXN mRNA levels (FXN mRNA [5]): no effect; also recorded: weakly active; inhibition mechanism HDAC1 (Recombinant human HDAC1 [10]; [13]): slow-on/slow-off inhibition mechanism 2; preference for HDAC1 over HDAC3 comparing IC50 values (Recombinant human HDAC1 [10]; from Table 1 values): ~ 75 fold; preference for HDAC1 over HDAC3 from Ki measurements (Recombinant human HDAC1 [10]; from Table 1 values): ~ 350 fold; k2 HDAC1 (Recombinant human HDAC1 [10]; [15]): k2 = 0.1675 min^−1; k−2 HDAC1 (Recombinant human HDAC1 [10]; [15]): k−2 = 0.0017 min^−1

With `c1ccc2[nH]cnc2c1` [benzimidazole] as the molecule, how does the “risk category for inducing QTc prolongation” value [11] read?
Its value is “high-risk category”.

Which results are given for `Nc1ccccc1NC(=O)/C=C/c1cn(C/C=C/c2ccccc2)nn1` [Click-1]?
PCGF2 mRNA level (PCGF2 mRNA; 5 μM (lower concentrations)): significantly down-regulate; H2AFY2 mRNA level (H2AFY2 mRNA; 5 μM (lower concentrations)): significantly down-regulate; brain/plasma ratio [12]: > 0.7; metabolic conversion / benzimidazole formation [2]: stability to benzimidazole formation; FXN mRNA increase compared with HDACi 109 (FXN mRNA [5]; FRDA neuronal cells, varying concentrations (Figure 6B)): equivalent activities; also recorded: no loss of activity

What does the source list for `Cc1ccc(NC(=O)CCCCCC(=O)Nc2ccccc2N)cc1` [HDACi 106]?
inhibition mechanism HDAC1 (Recombinant human HDAC1 [8]): slow-on/slow-off inhibitor; metabolic conversion / benzimidazole formation [2]: conversion of the active molecule into an inactive metabolic product

Which results are given for `Nc1ccc(-c2cccs2)cc1NC(=O)CCCCCCNC(=O)c1cccnc1` [HDACi 233, N-(2-amino-5-(2-thienyl)phenyl)-7-nicotinoylamino-heptanamide]?
selectivity for HDAC1 over HDAC3 (Recombinant human HDAC1 [8]): > 200 fold; induction of FXN gene expression in FRDA neuronal cells (FXN mRNA [4]): weakly active; up-regulation of FXN mRNA (FXN mRNA [5]; FRDA neuronal cells): did not

Which “effect on FXN gene expression” value (FXN mRNA [1]) does the source give for `O=C(CCCCCCC(=O)Nc1ccccc1)NO` [SAHA] here?
The value was “without effect on FXN gene expression”.
